# Laboratory results from patent publication US20240043404A1 (AbbVie Inc., priority 2009, published 2024).
# System: RS4;11 cells
# Experiment: RS4;11 cell viability assay (CellTiter Glo);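 further: acute lymphoblastic leukemia line RS4,11, EC50 derived from percentage of viable cells after treatment relative to untreated controls, cell killing taken as a measure of Bcl-2 inhibition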
# Format: cell-based, human
# Details: Homo sapiens, RS4-11, 48 h, 50,000 cells per well, 10% human serum, 48 hours; read-out: RS4; 11 EC50 Values
# Experimental: The acute lymphoblastic leukemia (ALL) cell line RS4;11 was used as the primary human cell line to assess the cellular activity of Bcl-2 selective agents in vitro and their efficacy in vivo.
# Cell cytotoxicity EC50 values were assessed using CellTiter Glo (Promega) according to the manufacturer's recommendations. The EC50 values were determined as a percentage of viable cells following treatment compared to the untreated control cells.
row,EC50,SMILES
1,> 1000 nM,"CC1(C)CCC(CN2CCN(c3ccc(C(=O)NS(=O)(=O)c4ccc(NCC5CCCN(CC#N)C5)c([N+](=O)[O-])c4)c(Oc4cnc5[nH]ccc5c4)c3)CC2)=C(c2ccc(Cl)cc2)C1 (stereo not shown) [Example 229, 4-(4-{[2-(4-chlorophenyl)-4,4-dimethylcyclohex-1-en-1-yl]methyl}piperazin-1-yl)-N-{[4-({[1-(cyanomethyl)piperidin-3-yl]methyl}amino)-3-nitrophenyl]sulfonyl}-2-(1H-pyrrolo[2,3-b]pyridin-5-yloxy)benzamide]"
2,52.8 nM,"CN1CCC(F)(COc2ccc(S(=O)(=O)NC(=O)c3ccc(N4CCN(CC5=C(c6ccc(Cl)cc6)CC(C)(C)CC5)CC4)cc3Oc3cnc4[nH]ccc4c3)cc2S(=O)(=O)C(F)(F)F)CC1 [Example 230, 4-(4-{[2-(4-chlorophenyl)-4,4-dimethylcyclohex-1-en-1-yl]methyl}piperazin-1-yl)-N-({4-[(4-fluoro-1-methylpiperidin-4-yl)methoxy]-3-[(trifluoromethyl)sulfonyl]phenyl}sulfonyl)-2-(1H-pyrrolo[2,3-b]pyridin-5-yloxy)benzamide]"
3,523 nM,"CC1(C)CCC(CN2CCN(c3ccc(C(=O)NS(=O)(=O)c4cnc(N[C@@H]5CCN(C(CF)CF)C5)c(Cl)c4)c(Oc4cnc5[nH]ccc5c4)c3)CC2)=C(c2ccc(Cl)cc2)C1 [Example 231, N-[(5-chloro-6-{[(3R)-1-(1,3-difluoropropan-2-yl)pyrrolidin-3-yl]amino}pyridin-3-yl)sulfonyl]-4-(4-{[2-(4-chlorophenyl)-4,4-dimethylcyclohex-1-en-1-yl]methyl}piperazin-1-yl)-2-(1H-pyrrolo[2,3-b]pyridin-5-yloxy)benzamide]"
4,> 1000 nM,"CC1(C)CCC(CN2CCN(c3ccc(C(=O)NS(=O)(=O)c4ccc(NN5CCN(C(=O)OC(C)(C)C)CC5)c([N+](=O)[O-])c4)c(Oc4cnc5[nH]ccc5c4)c3)CC2)=C(c2ccc(Cl)cc2)C1 [Example 232, tert-butyl 4-[(4-{[4-(4-{[2-(4-chlorophenyl)-4,4-dimethylcyclohex-1-en-1-yl]methyl}piperazin-1-yl)-2-(1H-pyrrolo[2,3-b]pyridin-5-yloxy)benzoyl]sulfamoyl}-2-nitrophenyl)amino]piperazine-1-carboxylate]"
5,> 1000 nM,"CC1(C)CCC(CN2CCN(c3ccc(C(=O)NS(=O)(=O)c4ccc(NCC5CCOCC5)c(S(F)(F)(F)(F)F)c4)c(Oc4cnc5[nH]ccc5c4)c3)CC2)=C(c2ccc(Cl)cc2)C1 [Example 233, 4-(4-{[2-(4-chlorophenyl)-4,4-dimethylcyclohex-1-en-1-yl]methyl}piperazin-1-yl)-N-({3-(pentafluoro-lambda˜6˜-sulfanyl)-4-[(tetrahydro-2H-pyran-4-ylmethyl)amino]phenyl}sulfonyl)-2-(1H-pyrrolo[2,3-b]pyridin-5-yloxy)benzamide]"
6,135 nM,"COC1(COc2ccc(S(=O)(=O)NC(=O)c3ccc(N4CCN(CC5=C(c6ccc(Cl)cc6)CC(C)(C)CC5)CC4)cc3Oc3cnc4[nH]ccc4c3)cc2[N+](=O)[O-])CCOCC1 [Example 234, 4-(4-{[2-(4-chlorophenyl)-4,4-dimethylcyclohex-1-en-1-yl]methyl}piperazin-1-yl)-N-({4-[(4-methoxytetrahydro-2H-pyran-4-yl)methoxy]-3-nitrophenyl}sulfonyl)-2-(1H-pyrrolo[2,3-b]pyridin-5-yloxy)benzamide]"
7,32.3 nM,"CC1(C)CCC(CN2CCN(c3ccc(C(=O)NS(=O)(=O)c4ccc(O[C@@H]5CCN(C(CF)CF)C5)c([N+](=O)[O-])c4)c(Oc4cnc5[nH]ccc5c4)c3)CC2)=C(c2ccc(Cl)cc2)C1 [Example 235, 4-(4-{[2-(4-chlorophenyl)-4,4-dimethylcyclohex-1-en-1-yl]methyl}piperazin-1-yl)-N-[(4-{[(3R)-1-(1,3-difluoropropan-2-yl)pyrrolidin-3-yl]oxy}-3-nitrophenyl)sulfonyl]-2-(1H-pyrrolo[2,3-b]pyridin-5-yloxy)benzamide]"
